≈ marks a conversion by molar mass, not a printed value.

Series [1] has as its system production of IL-1β by human monocyte-derived THP-1 cells. Briefly: Inhibitory activity against the production of IL-1β by LPS-stimulated THP-1 cells (ELISA). Type of series: cell-based. Particulars: LPS 25 μg/ml, 4 hours, PMA-differentiated THP-1 cells, read-out: 50% inhibitory concentration against the IL-1 production by THP-1 cells stimulated by LPS. How it is done: The inhibitory activity of the compound of the present invention, EI-2128-1, against the production of IL-1β by human monocyte-derived THP-1 cells (ATCC No. TIB 202) was examined in the following manner. The amount of IL-1β was determined by the ELISA method.
THP-1 cells were suspended in RPMI1640 medium (Nissui Pharmaceutical Co., Ltd.) containing 10% inactivated fetal calf serum at a concentration of 1×10^5 cells/ml. The cell suspension was put into wells of a 24-well plate in an amount of 1 ml/well. Phorbol 12-myristate 13-acetate (PMA, final concentration: 30 nM) was added to the wells, followed by incubation in a 5% CO2 -incubator at 37° C. for 65 hours to differentiate the cells into macrophage.
Then, the plate was gently washed with serum-free RPMI1640 medium to remove the cells which were not adhered to the wells, and the residue was cultured for 4 hours in serum-free RPMI1640 medium (1 ml/well) containing lipopolysaccharide (LPS, final concentration: 25 μg/ml) and the test compound (final concentration: 0.05-50 μg/ml).
After the completion of culturing, the amount of IL-1β released into the culture supernatant was determined by using an IL-1β determination kit (Amersham Corp.).
The IL-1 production inhibition rate was calculated according to the following equation to obtain IC50 (50% inhibitory concentration).
IL-1 production inhibition rate (%)=(A-B)/(A-C)×100 […]

Series [2] concerns Candida albicans ATCC 10231. Briefly: Antibacterial activity, agar dilution method. The class given is cell-based. The settings on record: ATCC10231; Candida albicans ATCC 10231, agar dilution, pH 7.0. (In general: In agar dilution, organisms are placed on agar that contains the substance at set levels.)
Series [3] deals with Enterococcus hirae ATCC 10541. Description: Antibacterial activity, agar dilution method. Type of series: cell-based. The settings on record: ATCC10541; Enterococcus hirae ATCC 10541, agar dilution, pH 7.0.
Series [4] concerns Staphylococcus aureus subsp. aureus ATCC 6538P. Description: Antibacterial activity, agar dilution method. The class given is cell-based. The settings on record: ATCC6538P, pH 7.0.
Series [5] relates to Bacillus subtilis No. 10707. Briefly: Antibacterial activity, agar dilution method. The settings on record: Bacillus subtilis No. 10707, agar dilution, pH 7.0. The class given is cell-based.
For series [6], the system named is Proteus vulgaris ATCC 6897. Description: Antibacterial activity, agar dilution method. Type of series: cell-based. The settings on record: ATCC6897; Proteus vulgaris ATCC 6897, agar dilution, pH 7.0.
Series [7] concerns Klebsiella pneumoniae subsp. pneumoniae ATCC 10031. Description: Antibacterial activity, agar dilution method. The class given is cell-based. The settings on record: ATCC10031; Klebsiella pneumoniae subsp. pneumoniae ATCC 10031, agar dilution, pH 7.0.
The nature of series [8]: Solubility. The settings on record: methanol, acetonitrile, and chloroform. Type of series: physicochemical.

For `CCCCCCC(C)CC(C)/C=C/C(=O)NC1CC2(OC1O)C1OC1C(=O)C1OC12` (centres unmarked) [EI-2128-1], in series [1], the IC50 was 100 nM. Besides, the minimum inhibitory concentration (MIC) (commonly the smallest concentration in the dilution series that meets the test's criterion for growth inhibition) in series [2] worked out at 42 µg/mL (≈ 99.6 µM); in series [3], 0.33 µg/mL (≈ 0.783 µM); in series [4], 0.33 µg/mL (≈ 0.783 µM); in series [5] it was 0.16 µg/mL (≈ 0.38 µM); in series [6], 42 µg/mL (≈ 99.6 µM); in series [7] it was 21 µg/mL (≈ 49.8 µM). The Solubility entry in series [8] was “Readily soluble in methanol, acetonitrile, and chloroform”.

The values above are taken from patent US5874592A, “Physiologically active substance EI-2128-1” (Kyowa Hakko Kogyo Co., Ltd., priority 1996, dated 1999).
